We go through one molecule from patent US7521449B2, “4-arylmorpholin-3-one derivatives, their preparation and therapeutic use thereof” (Sanofi-Aventis, priority 2004, dated 2009).

In assay [1] the target is T1, cloned human NK2 receptors (Homo sapiens, UniProt P21452).
T1 construct: expressed in transfected cells; host or cells: CHO cells
T1 sequence (P21452 1-398): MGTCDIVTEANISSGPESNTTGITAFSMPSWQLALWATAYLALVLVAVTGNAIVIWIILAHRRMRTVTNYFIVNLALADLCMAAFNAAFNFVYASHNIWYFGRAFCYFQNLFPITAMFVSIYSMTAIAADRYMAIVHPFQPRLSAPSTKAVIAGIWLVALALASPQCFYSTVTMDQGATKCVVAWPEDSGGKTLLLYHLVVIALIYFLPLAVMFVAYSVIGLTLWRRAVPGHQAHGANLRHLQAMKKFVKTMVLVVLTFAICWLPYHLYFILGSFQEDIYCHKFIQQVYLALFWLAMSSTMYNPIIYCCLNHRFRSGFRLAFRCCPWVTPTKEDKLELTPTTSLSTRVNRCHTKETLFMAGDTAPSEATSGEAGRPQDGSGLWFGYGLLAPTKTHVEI
Briefly: Inhibition of the binding of [125I]His-neurokinin A to cloned human NK2 receptors expressed by CHO cells. Conditions: binding of [125I]His-NKA, cloned human NK2 receptors expressed in CHO cells; read-out: inhibition constant Ki. On the procedure:
The affinity of the compounds for the tachykinin receptors NK2 was evaluated in vitro by measuring the inhibition of the binding of [^125I]His-neurokinin A ([^125I]His-NKA) to cloned human NK2 receptors expressed by CHO cells (Y. Takeda et al., J. Neurochem., 1992, 59, 740-745).
The trials were performed according to […]

The target in the next assay is T2, NK2 receptor (Mus musculus, UniProt P30549).
T2 construct: from tissue; host or cells: mouse striatum (in vivo)
T2 sequence (P30549 1-384): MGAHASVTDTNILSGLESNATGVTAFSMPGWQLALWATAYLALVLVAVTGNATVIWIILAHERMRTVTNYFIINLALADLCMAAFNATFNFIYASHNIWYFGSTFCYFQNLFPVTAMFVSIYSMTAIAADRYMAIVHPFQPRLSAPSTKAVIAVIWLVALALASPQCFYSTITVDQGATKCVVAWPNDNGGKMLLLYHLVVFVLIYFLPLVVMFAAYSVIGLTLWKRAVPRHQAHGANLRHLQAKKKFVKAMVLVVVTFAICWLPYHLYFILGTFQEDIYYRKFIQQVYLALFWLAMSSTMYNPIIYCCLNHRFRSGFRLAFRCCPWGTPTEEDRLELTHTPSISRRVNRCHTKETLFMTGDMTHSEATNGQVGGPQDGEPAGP
Briefly: Spinning behavior caused by injection of [Nle10]NKA(4-10) into the striatum of mice, compounds administered orally. The assay is classed as in vivo. The protocol:
The compounds of the present invention were also evaluated in vivo in a model of pharmacodynamics.
In mice, injection into the striatum of a specific agonist of the NK2 receptor, [Nle^10]NKA(4-10), causes a spinning behavior, which is inhibited in a dose-dependent manner by the compounds according to the invention administered orally. This test was performed according to Poncelet et al. (Neurosci. Lett., 1993, 149, 40-42).

Structures are written as SMILES. Counter-ions that a name gives are not always drawn.

In general, Ki refers to the dissociation constant of the complex between target and ligand, obtained from inhibition or displacement. One may read the ED50 as the dose that gives a 50% effect, or the effect in half of the subjects. Regarding `CC(=O)NC1(c2cccc(F)c2)CCN(CCC2(c3ccc(Cl)c(Cl)c3)CN(c3ccccc3)C(=O)CO2)CC1` (single isomer, unassigned) [Compound 3, N-[1-[2-[2-(3,4-Dichlorophenyl)-5-oxo-4-phenylmorpholin-2-yl]ethyl]-4-(3-fluorophenyl)piperid-4-yl]acetamide hydrochloride, dextrorotatory isomer], the inhibition constant Ki in assay [1] turned out to be 0.16 nM. Further, at NK2 receptor (conclusion from the pharmacological results), the “antagonism of the NK2 receptors (blocking the pharmacological effects caused by neurokinin A)” value is “antagonists of the NK2 receptors”. For the same molecule, the ED50 on NK2 receptor (mouse, po, mice, orally, spinning behavior caused by intrastriatal [Nle10]NKA(4-10), read-out: 50 effective dose (ED50)) was found to be 0.023 mg/kg.
